From patent publication US20030083385A1, “Use of benzenesulfonyl (thioureas or ure as) for treating of septic shock or gene ralized inflammatory syndrome” (priority 2001, published 2003)
Counter-ions that a name gives are not always drawn.

Experiments:
[1] = tested on: anesthetized pigs given lipopolysaccharide (LPS) as a bolus; assay: Endotoxin (LPS) model in anesthetized pigs, LPS bolus; assay type: in vivo, pig; conditions: LPS 1 μg/kg bolus, n=5, LPS raised pressure from 30.6±0.7 to 67.2±6.0 mm Hg, compound 5 mg/kg intravenously, p<0.01
Excerpt: (§1) The suitability of a compound of formula I for treating pathological changes in blood pressure associated with septic shock or occurring in the generalized inflammatory syndrome (SIRS) state can be established, for example, in the pharmacological model in the pig that is described further below (endotoxin model, synonym: LPS model (LPS=lipopolysaccharide)). The effect can also be examined, for example, in rats, mice, cats, guinea pigs, rabbits, dogs or monkeys.
In another experimental approach performed on anesthetized pigs, 1 μg/kg of LPS was administered as a bolus (n=5). This led, within 15-20 min, to a dangerous increase in the systolic pulmonary arterial pressure from 30.6±0.7 mm Hg to 67.2±6.0 mm Hg.

[2] = tested on: anesthetized pigs infused continuously with lipopolysaccharide (LPS); assay: Endotoxin (LPS) model in anesthetized pigs, continuous LPS infusion; assay type: in vivo, pig
Excerpt: as §1
Anesthetized pigs were infused continuously with lipopolysaccharide (LPS) (0.15 μg/kg/h; n=7). This led to a decrease in the peripheral resistance. After 3.9 hours, 1-(5-(2-(5-chloro-2-methoxybenzamido)ethyl)-2-(2-methoxyethoxy)phenyl-sulfonyl)-3-methylthiourea sodium salt was administered at a dose of 5-10 mg/kg (intravenously; aqueous solution). […] The peripheral resistance, which under the effect of the endotoxin had fallen to 60.8±4.1% of the starting value that had been present prior to administering the endotoxin, rose to 80.8±5.1% of the starting value that had been present prior to administering the endotoxin (p<0.0001).

## CNC(=S)NS(=O)(=O)c1cc(CCNC(=O)c2cc(Cl)ccc2OC)ccc1OCCOC [1-(5-(2-(5-chloro-2-methoxybenzamido)ethyl)-2-(2-methoxyethoxy)phenyl-sulfonyl)-3-methylthiourea sodium salt]
[1]
  systolic pulmonary arterial pressure after administration: 46.6±4.0 mm Hg
[2]; LPS 0.15 μg/kg/h continuous infusion, n=7, compound 5-10 mg/kg intravenously (aqueous solution) after 3.9 hours, p<0.001
  rise of peripheral mean arterial blood pressure: 19.6±3.2 mm Hg
[2]; LPS 0.15 μg/kg/h continuous infusion, n=7, compound 5-10 mg/kg intravenously after 3.9 hours, had fallen to 60.8±4.1% under endotoxin, p<0.0001
  peripheral resistance after administration: 80.8±5.1 % of the starting value
[2]; LPS model, infusion, total dose 5-10 mg/kg, seen already after a dose of 1-2.5 mg/kg had been infused
  effect when administered as an infusion: marked improvement
